Experimental data published in patent publication US12409151B2, “Transdermal device comprising NSAID or analgesic prodrug molecules” (Remedy Diagnostics LLC, priority 2019, dated 2025).
Values after ≈ are worked out from the molar mass of the structure shown. Values joined by “and” are separate entries in the source; they are usually repeats but may differ in a detail not shown here. Equal entries are not always repeated. Where two headings read alike, the source gives them in different places. Each block holds one compound with its values, some of them ahead of it.

Tests used:
[1] = physchem; settings: for solubility: organic solvent or mixture, thermodynamic from solid, solubility in F1
Method: This example illustrates the solubilities of APAP, IBU, Pro-APAP, and Pro-IBU in vehicle formulations F1 and F2.
Formulation F1 consisted of 50% Polyethylene Glycol (MW grade: 400) in 50% Ethanol. 50.2 mg of IBU was dissolved in 10.0 mL of F1, to produce a solution with a concentration of 5.02 mg/mL.

[2] = cited from earlier work
[3] = Solutions in permeation enhanced vehicle formulation F3; format: physicochemical; settings: F3: 33.3% DMSO and 66.6% ethanol; dissolved in neat ethanol, then DMSO added
Method: A permeation enhanced vehicle formulation F3 was developed consisting of 33.3% dimethylsulfoxide (DMSO) and 66.6% ethanol. A solution of Pro-APAP in F3 was prepared by first dissolving 30.5 mg of Pro-APAP into 2 mL neat ethanol, and then slowly adding 1 mL DMSO to reach a 3 mL 10.1 mg/mL solution with a final DMSO concentration of 33.3%.
A solution of Pro-IBU in F3 was prepared by first dissolving 67.0 mg of Pro-IBU into 1 mL neat ethanol, and then slowly adding 0.50 mL DMSO to reach 1.5 mL of a 44.6 mg/mL solution with a final DMSO concentration of 33.3%.

[4] = Skin permeation across excised human skin (Franz cell), UV-Vis of receptor media; format: in vitro ADME
Method: Skin Permeation Studies: Upon completion of the solubility and stability studies, the ability of the compound to permeate the skin in the selected solvent/vehicle was tested and the rate of permeation was measured to determine whether the compound permeated to an extent relevant for clinical use in a transdermal patch. Specifically, 4-acetoxyacetanilide was assessed for skin permeation across human skin over a 24 h time period.
Methods: For the skin permeation studies, a sample chamber containing 5 mL of 50% Polyethylene glycol 400 in ethanol was used as the receptor media. An initial sample of receptor media was drawn at the onset of testing to test for interferents and subsequent samples of 1 mL each were taken at the following time-points: 0.5 h, 1 h, 2 h, 5 h, 8 h, and 24 h. These samples were analyzed via UV-Vis spectroscopy (Tecan m200 Infinity Multi-Well Plate Reader) for absorbance at 246 nm and were blanked relative to that of the empty vehicle.
Materials: 4-acetoxyacetanilide (Pro-APAP), Formulation Solvent: 50% DMSO in Polyethylene Glycol 400, and Receptor Media: 50% Ethanol in Polyethylene Glycol 400 at 37° C.
Skin permeation studies: Upon completion of the solubility and stability studies, the ability of the pro-IBU compound to permeate the skin in the selected solvent/vehicle was tested and the rate of permeation was measured to determine whether the compound will permeate to an extent relevant for clinical use in a transdermal patch. Specifically, ethyl 2-(4-isobutylphenyl)-propanoate was assessed for skin permeation across human skin over a 24 h time period.
Materials: ethyl 2-(4-isobutylphenyl)-propanoate (pro-IBU), Formulation Solvent: 50% DMSO in Polyethylene Glycol 400, Receptor Media: 50% Ethanol in Polyethylene Glycol 400 at 37° C.

[5] = Stability of prodrugs in vehicle F3, monitored visually; format: physicochemical
Method: This example evaluated the stability of each of the prodrugs in vehicle F3.
A 50 mg/ml solution of Pro-APAP in F3 was prepared and monitored visually for three months to check for stability. […] was determined to be stable in this solution for the duration of the experiment.
A 70 mg/ml solution of Pro-IBU in F3 was prepared and monitored visually for three months to check for stability. […] was determined to be stable in this solution for the duration of the experiment.

[6] = 5 Hr, cumulative mass into receptor media, excised human skin, Franz cell 0.64 cm^2, 37° C.
[7] = 8 Hr, cumulative mass into receptor media, excised human skin, Franz cell 0.64 cm^2, 37° C.
[8] = 24 Hr, cumulative mass into receptor media, excised human skin, Franz cell 0.64 cm^2, 37° C.
[9] = 24 h, excised human skin, Franz cell, 37° C., 50% DMSO in PEG 400

solubility [1]: ≥ 24.9 mg/mL
concentration of solution prepared in F3 [3]: 44600 µg/mL
permeability (permeation) coefficient range [4]: 33.32-65.47 μg/h/cm^2
lag time ([4]; human): 2 to 5 h
Average Mass Released ([4]; human, 5 h): 18.06 µg
Maximum (mass released) ([4]; human, 5 h): 54.17 µg
Minimum (mass released) ([4]; human, 5 h): 0.00 µg
mass detected in one of the wells ([4]; human, 5 h): 54 µg
Average Mass Released ([4]; human, 8 h): 25.50 µg
Maximum (mass released) ([4]; human, 8 h): 70.83 µg
Minimum (mass released) ([4]; human, 8 h): 0.00 µg
concentration of Pro-IBU in the receptor media ([4]; human, 24 h): ~200 µg/mL
Structure (SMILES): CCOC(=O)C(C)c1ccc(CC(C)C)cc1 (stereo not drawn) [Pro-IBU, ethyl 2-(4-isobutylphenyl)-propanoate]
solubility ([2]; in DMSO and ethanol): soluble

Structure (SMILES): CC(=O)Nc1ccc(OC(C)=O)cc1 [Pro-APAP, 4-acetoxyacetanilide]
solubility in F1 [1]: 12.5 mg/mL (≈ 64.7 mM)
solubility ([2]; in chloroform, DMSO, and methanol): slightly soluble
concentration of solution prepared in F3 [3]: 10100 µg/mL
stability in solution in F3 ([5]; 50 mg/ml solution in F3, monitored visually for three months): stable
stability in solution in F3 ([5]; 70 mg/ml solution of Pro-IBU in F3, monitored visually for three months): stable
Maximum (mass released) [4, 6]: 10.8 µg and 10.88 µg
Minimum (mass released) [4, 6]: 4.73 µg
Average Mass Released ([4]; 5 Hr, cumulative mass into receptor media, excised human skin, Franz cell 0.64 cm^2, 37° C., 50% DMSO in PEG 400): 7.15 µg and 7.16 µg
Maximum (mass released) [4, 7]: 15.34 µg
Minimum (mass released) [4, 7]: 10.04 µg
Average Mass Released ([4]; 8 Hr, cumulative mass into receptor media, excised human skin, Franz cell 0.64 cm^2, 37° C., 50% DMSO in PEG 400): 12.20 µg
Maximum (mass released) [4, 8]: 91.94 µg and 91.95 µg
Minimum (mass released) [4, 8]: 55.45 µg
Average Mass Released ([4]; 24 Hr, cumulative mass into receptor media, excised human skin, Franz cell 0.64 cm^2, 37° C., 50% DMSO in PEG 400): 76.15 µg and 76.16 µg
concentration of Pro-APAP in receptor media, maximum [4, 9]: 15.78 µg/mL
concentration of Pro-APAP in receptor media, minimum [4, 9]: 8.76 µg/mL
concentration of Pro-APAP in receptor media, average ([4]; 24 h, excised human skin, Franz cell, 37° C., formulation solvent 50% DMSO in PEG 400, receptor 50% ethanol in PEG 400, blank subtracted): 12.36 µg/mL
permeability (permeation) coefficient range ([4]; calculated, human skin, 24 h study, 50% DMSO in PEG 400): 3.61-5.98 μg/h/cm^2
total cumulative amount permeated ([4]; human skin over 24 h, 50% DMSO in PEG 400): around 80 μg per 0.66 cm^2

solubility [1]: 12.8 mg/mL (≈ 84.7 mM)
Structure (SMILES): CC(=O)Nc1ccc(O)cc1 [APAP, acetaminophen, reference compound]
